Assay results reported in paper PMC6406002, “Comparison of the functional properties of trimeric and monomeric CaiT of Escherichia coli” (Scientific Reports, 2019).
Read-outs that look alike come from different tables or passages of the source.

Columns and labels:
Experiment in all cases: tryptophan fluorescence titration
Format in all cases: binding
CaiT [1] = molecular target: T1, CaiT (Escherichia coli, UniProt P31553)
T1 construct: full-length with C-terminal 6His tag (pET21a), expressed in E. coli JW0039 (delta caiT), Ni-NTA purified; homotrimer (D288A and D288R mostly monomeric); DDM-solubilized or in proteoliposomes
Text: (§1) tryptophan fluorescence titration on CaiT

CaiT [2] = molecular target: T2, CaiT (Escherichia coli, UniProt P31553, D288A)
T2 construct: full-length with C-terminal 6His tag (pET21a), expressed in E. coli JW0039 (delta caiT), Ni-NTA purified; homotrimer (D288A and D288R mostly monomeric); DDM-solubilized or in proteoliposomes
Text: as §1

CaiT [3] = molecular target: T3, CaiT (Escherichia coli, UniProt P31553, D288R)
T3 construct: full-length with C-terminal 6His tag (pET21a), expressed in E. coli JW0039 (delta caiT), Ni-NTA purified; homotrimer (D288A and D288R mostly monomeric); DDM-solubilized or in proteoliposomes
Text: as §1

Row | SMILES | Kd (CaiT [1]; read-out: L-carnitine / Kd) [mM] | Kd (CaiT [2]; read-out: L-carnitine / Kd) [mM] | Kd (CaiT [3]; read-out: L-carnitine / Kd) [mM] | Kd (CaiT [1]; read-out: γ-butyrobetaine / Kd) [mM] | Kd (CaiT [2]; read-out: γ-butyrobetaine / Kd) [mM] | Kd (CaiT [3]; read-out: γ-butyrobetaine / Kd) [mM]
1 | C[N+](C)(C)C[C@H](O)CC(=O)O [L-carnitine] | 3.3 ± 0.2 | 1.8 ± 0.9 | 1.9 ± 1 |  |  | 
2 | C[N+](C)(C)CCCC(=O)[O-] [γ-butyrobetaine] |  |  |  | 3.4 ± 0.1 | 3.3 ± 1.3 | 11.4 ± 4.4
